The text below walks through data of EP4678638A1, “NEW E3 UBIQUITIN LIGASE LIGAND, PROTEIN DEGRADATION AGENT AND USE THEREOF” (priority 2023, dated 2024).

Molecules are shown by their SMILES.

The target of assay [1] is T1, ALK (Homo sapiens, UniProt Q96SW2+Q9HC35+Q9UM73).
T1 construct: evaluate the effects of the compounds of the present disclosure on the expression of target proteins in cells; endogenous in cells; host or cells: H2228
In words: Western blot degradation of ALK (H2228 Cell). It counts as cell-based. To be noted: Table D5. The method, boiled down:
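Quantification by ImageJ densitometry of Western blot bands: DC50 is the fitted concentration halving band intensity relative to DMSO. Percent remaining uses internal-control normalization, and degradation rate is its complement.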

Assay [2] addresses T2, human Cereblon WT GST-tagged protein (Homo sapiens, UniProt Q96SW2).
T2 construct: purchased CISBIO 64BDCRBNPEH
The assay can be described thus: CRBN binding, HTRF (CEREBLON BINDING kit). To be noted: Table II-2, CRBN binding screening, HTRF; for inhibition at 0.5 µM: read-out: Inhibition rate (%) at 0.5µM; for inhibition at 2 µM: read-out: Inhibition rate (%) at 2 µM. The method in brief:
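Competitive HTRF: GST-tagged human WT Cereblon mixed with compound, Thalidomide-Re tracer and GST Eu antibody, incubated 3 h at room temperature. Signals read at 620 and 665 nm.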

Assay [3] has as its system SR. In words: CCK-8 proliferation, SR. It counts as cell-based, Human. The following applies: Homo sapiens; Table B6, compounds designed based on the ALK inhibitors; SR cells; read-out: Inhibitory activity (IC50, nM) on tumor cell proliferation, SR. The method, boiled down: (§1)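 Cells seeded, then after 24 h treated with 10 concentrations (top 10 µM, 5-fold serial dilution) for a line-specific time at 37°C, 5% CO2. Viability read by CCK-8; IC50 fitted from growth-inhibition curves.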

For assay [4], the system named is MM.1S. In words: CCK-8 proliferation, MM.1S. It is filed as cell-based. To be noted: Homo sapiens, MM1.S; Table B6, compounds designed based on the ALK inhibitors; MM.1S cells; read-out: Inhibitory activity (IC50, nM) on tumor cell proliferation, MM.1S. The method, boiled down:
as §1

For assay [5], the system named is MCF7. In words: CCK-8 proliferation, MCF7 (MCF-7). It is filed as cell-based. To be noted: Homo sapiens, MCF7; Table B6, compounds designed based on the ALK inhibitors; MCF-7 cells; read-out: Inhibitory activity (IC50, nM) on tumor cell proliferation, MCF-7. The method in brief: as §1
Assay [6] relates to H1975. In words: CCK-8 proliferation, NCI-H1975 (H1975). The following applies: Homo sapiens, NCI-H1975; Table B6, compounds designed based on the ALK inhibitors; H1975 cells; read-out: Inhibitory activity (IC50, nM) on tumor cell proliferation, H1975. It counts as cell-based, Human. The method, boiled down: as §1
In assay [7] the test system is H2228. The assay can be described thus: CCK-8 proliferation, NCI-H2228 (H2228). It counts as cell-based. The following applies: Homo sapiens, NCI-H2228; Table B6, compounds designed based on the ALK inhibitors; H2228 cells; read-out: Inhibitory activity (IC50, nM) on tumor cell proliferation, H2228. The method, boiled down:
as §1

T1 sequence (Q9HC35+Q9UM73 fused): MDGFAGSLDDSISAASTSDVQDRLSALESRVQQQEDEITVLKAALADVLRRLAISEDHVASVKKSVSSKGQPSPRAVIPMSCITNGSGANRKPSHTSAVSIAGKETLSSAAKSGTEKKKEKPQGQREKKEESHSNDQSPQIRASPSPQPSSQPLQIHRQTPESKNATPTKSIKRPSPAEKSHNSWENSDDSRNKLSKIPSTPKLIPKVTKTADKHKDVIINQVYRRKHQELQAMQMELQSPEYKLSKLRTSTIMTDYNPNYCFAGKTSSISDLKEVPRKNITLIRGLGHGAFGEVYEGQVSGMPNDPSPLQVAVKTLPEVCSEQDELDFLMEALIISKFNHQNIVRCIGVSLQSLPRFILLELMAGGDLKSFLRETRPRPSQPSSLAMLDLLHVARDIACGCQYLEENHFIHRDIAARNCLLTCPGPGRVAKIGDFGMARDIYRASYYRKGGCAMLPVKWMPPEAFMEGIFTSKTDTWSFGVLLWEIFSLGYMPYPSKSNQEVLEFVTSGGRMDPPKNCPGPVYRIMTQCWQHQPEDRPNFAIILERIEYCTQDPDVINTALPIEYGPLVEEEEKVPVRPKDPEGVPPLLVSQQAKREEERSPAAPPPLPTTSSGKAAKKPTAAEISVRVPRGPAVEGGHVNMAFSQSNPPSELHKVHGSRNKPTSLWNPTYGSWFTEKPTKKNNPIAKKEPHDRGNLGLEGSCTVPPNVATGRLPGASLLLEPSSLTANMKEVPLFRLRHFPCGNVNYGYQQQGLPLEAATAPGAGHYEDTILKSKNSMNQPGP
T1 sequence (Q96SW2 whole entry): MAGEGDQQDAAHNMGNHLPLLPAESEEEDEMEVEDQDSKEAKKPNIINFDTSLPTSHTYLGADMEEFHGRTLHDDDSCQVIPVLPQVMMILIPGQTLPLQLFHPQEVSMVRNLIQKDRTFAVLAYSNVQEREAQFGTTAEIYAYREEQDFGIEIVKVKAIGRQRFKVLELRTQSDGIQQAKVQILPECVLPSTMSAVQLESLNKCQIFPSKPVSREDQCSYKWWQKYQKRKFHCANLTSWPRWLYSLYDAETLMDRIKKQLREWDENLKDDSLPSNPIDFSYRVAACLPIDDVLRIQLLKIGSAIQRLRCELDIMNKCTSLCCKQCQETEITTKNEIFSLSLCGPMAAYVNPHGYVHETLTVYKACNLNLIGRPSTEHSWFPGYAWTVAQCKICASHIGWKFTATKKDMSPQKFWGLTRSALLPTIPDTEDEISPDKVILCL
T1 sequence (Q16531 whole entry partner): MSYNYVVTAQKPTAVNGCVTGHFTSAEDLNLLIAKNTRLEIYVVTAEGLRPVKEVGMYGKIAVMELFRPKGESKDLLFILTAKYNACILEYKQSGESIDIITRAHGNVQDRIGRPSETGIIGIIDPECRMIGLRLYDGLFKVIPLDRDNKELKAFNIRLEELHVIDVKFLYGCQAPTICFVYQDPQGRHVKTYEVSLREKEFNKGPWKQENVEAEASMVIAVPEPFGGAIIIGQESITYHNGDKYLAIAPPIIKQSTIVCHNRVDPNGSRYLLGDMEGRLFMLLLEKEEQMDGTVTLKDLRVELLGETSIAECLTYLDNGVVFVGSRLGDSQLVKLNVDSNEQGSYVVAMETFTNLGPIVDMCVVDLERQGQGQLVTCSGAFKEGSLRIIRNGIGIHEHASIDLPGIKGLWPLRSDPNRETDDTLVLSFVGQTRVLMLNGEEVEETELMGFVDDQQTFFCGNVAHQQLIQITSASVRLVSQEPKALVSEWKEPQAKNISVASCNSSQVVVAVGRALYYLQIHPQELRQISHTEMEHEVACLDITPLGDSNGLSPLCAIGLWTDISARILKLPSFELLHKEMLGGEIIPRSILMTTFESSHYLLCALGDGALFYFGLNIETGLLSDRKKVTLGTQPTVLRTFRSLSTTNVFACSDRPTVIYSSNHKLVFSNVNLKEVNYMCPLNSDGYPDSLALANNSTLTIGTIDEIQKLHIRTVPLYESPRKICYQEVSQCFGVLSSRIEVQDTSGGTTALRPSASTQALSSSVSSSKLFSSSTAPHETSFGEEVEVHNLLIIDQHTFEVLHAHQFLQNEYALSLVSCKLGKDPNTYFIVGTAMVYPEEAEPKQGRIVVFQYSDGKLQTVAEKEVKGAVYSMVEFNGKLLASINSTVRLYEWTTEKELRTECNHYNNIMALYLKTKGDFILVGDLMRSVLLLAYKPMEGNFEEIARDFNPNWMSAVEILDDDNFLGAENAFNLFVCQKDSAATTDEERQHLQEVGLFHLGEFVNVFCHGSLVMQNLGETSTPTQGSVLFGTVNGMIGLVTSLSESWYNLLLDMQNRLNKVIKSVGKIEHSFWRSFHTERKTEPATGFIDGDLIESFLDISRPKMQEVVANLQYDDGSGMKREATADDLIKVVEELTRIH
T2 sequence (Q96SW2 whole entry): as the sequence (Q96SW2 whole entry) above

On to `CCc1cc2c(cc1N1CCC(N3CCN(Cc4ccc(C5CCC(=O)NC5=O)cc4)CC3)CC1)C(C)(C)c1[nH]c3cc(C#N)ccc3c1C2=O` (centres unmarked) [GT-03762, 8-(4-(4-(4-(2,6-dioxopiperidin-3-yl)benzyl)piperazin-1-yl)piperidin-1-yl)-9-ethyl-6,6-dimethyl-11-oxo-6,11-dihydro-5H-benzo[b]carbazole-3-carbonitrile], for which the “Degradation of substrate protein ALK (substrate protein remaining %)” value (from here on “Degradation … (substrate protein remaining %)”) in assay [1] was “A (A is defined as 0% ≤ substrate protein remaining % ≤ 80%)”. In assay [2], the inhibition at 0.5 µM was in the range of 40 to 53% and the inhibition at 2 µM was in the range of 60 to 80%. Moreover, the IC50 in assay [3] lay within 1 to 10 nM. For the same compound, the IC50 in assay [4] lay in the range of 500 to 1000 nM.
The like results for `CCc1cc2c(cc1N1CCC(N3CCN(Cc4ccc(C5CCC(=O)NC5=O)c(F)c4)CC3)CC1)C(C)(C)c1[nH]c3cc(C#N)ccc3c1C2=O` (centres unmarked) [GT-03763, 8-(4-(4-(4-(2,6-dioxopiperidin-3-yl)-3-fluorobenzyl)piperazin-1-yl)piperidin-1-yl)-9-ethyl-6,6-dimethyl-11-oxo-6,11-dihydro-5H-benzo[b]carbazole-3-carbonitrile] were, in that order, “A (A is defined as 0% ≤ substrate protein remaining % ≤ 80%)”, 40 to 53%, 53 to 60%, 1 to 10 nM and 100 to 500 nM.
Take `COc1cc(N2CCN(Cc3ccc(N4CCC(=O)NC4=O)cc3)CC2)ccc1Nc1ncc(Cl)c(Nc2ccccc2P(C)(C)=O)n1` [GT-07345, 1-(4-((4-(4-((5-chloro-4-((2-(dimethylphosphoryl)phenyl)amino)pyrimidin-2-yl)amino)-3-methoxyphenyl)piperazin-1-yl)methyl)phenyl)dihydropyr imidine-2,4(1H,3H)-dione]: the “Degradation … (substrate protein remaining %)” value in assay [1] is reported as “A (A is defined as 0% ≤ substrate protein remaining % ≤ 80%)”. Moreover, the IC50 in assay [3] lay within 10 to 50 nM; in assay [5], 500 to 1000 nM; in assay [6], 500 to 1000 nM; in assay [7], 100 to 500 nM.
Consider `COc1cc(N2CCN(Cc3ccc(N4CCC(=O)NC4=O)c(F)c3)CC2)ccc1Nc1ncc(Cl)c(Nc2ccccc2P(C)(C)=O)n1` [GT-07346, 1-(4-((4-(4-((5-chloro-4-((2-(dimethylphosphoryl)phenyl)amino)pyrimidin-2-yl)amino)-3-methoxyphenyl)piperazin-1-yl)methyl)-2-fluorophenyl)dihydropyrimidine-2,4(1H,3H)-dione], for which the “Degradation … (substrate protein remaining %)” value in assay [1] is “A (A is defined as 0% ≤ substrate protein remaining % ≤ 80%)”. Besides, the IC50 in assay [3] is 10 to 50 nM; in assay [5], 500 to 1000 nM; in assay [6], 100 to 500 nM; in assay [7] it was 100 to 500 nM.
As to `COc1cc(N2CCN(Cc3cccc(NC4CCC(=O)NC4=O)c3)CC2)ccc1Nc1ncc(Cl)c(Nc2ccccc2P(C)(C)=O)n1` (centres unmarked) [GT-07351, 3-((3-((4-(4-((5-chloro-4-((2-(dimethylphosphoryl)phenyl)amino)pyrimidin-2-yl)amino)-3-methoxyphenyl)piperazin-1-yl)methyl)phenyl)amino)pip eridine-2,6-dione], in assay [1], the “Degradation … (substrate protein remaining %)” value is “A (A is defined as 0% ≤ substrate protein remaining % ≤ 80%)”. Further, the IC50 lay in the range of 10 to 50 nM in assay [3], 500 to 1000 nM in assay [5], 500 to 1000 nM in assay [6] and 100 to 500 nM in assay [7].
Consider `COc1cc(N2CCC(N3CCN(Cc4cncc(N5CCC(=O)NC5=O)c4)CC3)CC2)ccc1Nc1ncc(Cl)c(Nc2ccccc2P(C)(C)=O)n1` [GT-07610, 1-(5-((4-(1-(4-((5-chloro-4-((2-(dimethylphosphoryl)phenyl)amino)pyrimidin-2-yl)amino)-3-methoxyphenyl)piperidin-4-yl)piperazin-1-yl)methyl)pyridin-3-yl)dihydropyrimidine-2,4(1H,3H)-dione], for which the “Degradation … (substrate protein remaining %)” value in assay [1] is “A (A is defined as 0% ≤ substrate protein remaining % ≤ 80%)”. Moreover, the IC50 was 1 to 10 nM in assay [3], 500 to 1000 nM in assay [5], 500 to 1000 nM in assay [6] and 50 to 100 nM in assay [7].
As to `COc1cc(N2CCC(N3CCN(Cc4cncc(C5CCC(=O)NC5=O)c4)CC3)CC2)ccc1Nc1ncc(Cl)c(Nc2ccccc2P(C)(C)=O)n1` (centres unmarked) [GT-07614, 3-(5-((4-(1-(4-((5-chloro-4-((2-(dimethylphosphoryl)phenyl)amino)pyrimidin-2-yl)amino)-3-methoxyphenyl)piperidin-4-yl)piperazin-1-yl)methyl)pyridin-3-yl)piperidine-2,6-dione], the “Degradation … (substrate protein remaining %)” value in assay [1] was “A (A is defined as 0% ≤ substrate protein remaining % ≤ 80%)”. In addition, the IC50 in assay [3] fell in the range of 1 to 10 nM; in assay [5], 500 to 1000 nM; in assay [6], 500 to 1000 nM; in assay [7], 100 to 500 nM.
Turning to `COc1cc(N2CCC(N(C)Cc3ccc(N4CCC(=O)NC4=O)cn3)CC2)ccc1Nc1ncc(Cl)c(Nc2ccccc2P(C)(C)=O)n1` [GT-07617, 1-(6-(((1-(4-((5-chloro-4-((2-(dimethylphosphoryl)phenyl)amino)pyrimidin-2-yl)amino)-3-methoxyphenyl)piperidin-4-yl)(methyl)amino)methyl)pyridin-3-yl)dihydropyrimidine-2,4(1H,3H)-dione], the “Degradation … (substrate protein remaining %)” value in assay [1] was “A (A is defined as 0% ≤ substrate protein remaining % ≤ 80%)”. Moreover, the IC50 in assay [3] was in the range of 10 to 50 nM; in assay [5] it was 100 to 500 nM; in assay [6], 500 to 1000 nM; in assay [7] it was 50 to 100 nM.
For the compound `COc1cc(N2CCC(N(C)Cc3ccc(N4CCC(=O)NC4=O)nc3)CC2)ccc1Nc1ncc(Cl)c(Nc2ccccc2P(C)(C)=O)n1` [GT-07691, 1-(5-(((1-(4-((5-chloro-4-((2-(dimethylphosphoryl)phenyl)amino)pyrimidin-2-yl)amino)-3-methoxyphenyl)piperidin-4-yl)(methyl)amino)methyl)pyridin-2-yl)dihydropyrimidine-2,4(1H,3H)-dione], the “Degradation … (substrate protein remaining %)” value in assay [1] was “A (A is defined as 0% ≤ substrate protein remaining % ≤ 80%)”. Moreover, the IC50 is 1 to 10 nM in assay [3], 100 to 500 nM in assay [5], 100 to 500 nM in assay [6] and 50 to 100 nM in assay [7].
As for `COc1cc(N2CCC(N(C)Cc3cc(C4CCC(=O)NC4=O)cnc3F)CC2)ccc1Nc1ncc(Cl)c(Nc2ccccc2P(C)(C)=O)n1` (centres unmarked) [GT-07696, 3-(5-(((1-(4-((5-chloro-4-((2-(dimethylphosphoryl)phenyl)amino)pyrimidin-2-yl)amino)-3-methoxyphenyl)piperidin-4-yl)(methyl)amino)methyl)-6-fluoropyridin-3-yl)piperidine-2,6-dione], the “Degradation … (substrate protein remaining %)” value in assay [1] is reported as “A (A is defined as 0% ≤ substrate protein remaining % ≤ 80%)”. Also, the IC50 in assay [3] was in the range of 10 to 50 nM; in assay [5] it was 500 to 1000 nM; in assay [6] it was 500 to 1000 nM; in assay [7], 100 to 500 nM.
On to `COc1cc(N2CCC(N(C)Cc3ccnc(C4CCC(=O)NC4=O)c3)CC2)ccc1Nc1ncc(Cl)c(Nc2ccccc2P(C)(C)=O)n1` (centres unmarked) [GT-07697, 3-(4-(((1-(4-((5-chloro-4-((2-(dimethylphosphoryl)phenyl)amino)pyrimidin-2-yl)amino)-3-methoxyphenyl)piperidin-4-yl)(methyl)amino)methyl)pyridin-2-yl)piperidine-2,6-dione], for which the “Degradation … (substrate protein remaining %)” value in assay [1] is recorded as “A (A is defined as 0% ≤ substrate protein remaining % ≤ 80%)”. For the same compound, the figures for the IC50 in assay [3], in assay [5] and in assay [7] were 10 to 50 nM, 500 to 1000 nM and 100 to 500 nM, respectively.
On to `COc1cc(N2CCC(N(C)Cc3ccc(C4CCC(=O)NC4=O)cn3)CC2)ccc1Nc1ncc(Cl)c(Nc2ccccc2P(C)(C)=O)n1` (centres unmarked) [GT-07698, 3-(6-(((1-(4-((5-chloro-4-((2-(dimethylphosphoryl)phenyl)amino)pyrimidin-2-yl)amino)-3-methoxyphenyl)piperidin-4-yl)(methyl)amino)methyl)pyridin-3-yl)piperidine-2,6-dione], for which the “Degradation … (substrate protein remaining %)” value in assay [1] is on record as “A (A is defined as 0% ≤ substrate protein remaining % ≤ 80%)”. In addition, the IC50 in assay [3] lay within 10 to 50 nM; in assay [5] it was 100 to 500 nM; in assay [6] it was 500 to 1000 nM; in assay [7] it was 100 to 500 nM.
